Source: patent publication US20110212954A1, “ALPHA-LIPOIC ACID DERIVATIVES AND THEIR USE IN DRUG PREPARATION” (priority 2008, published 2011)

Assays:
[1] = Pharmacokinetic study in rats after oral administration of a single dose, HPLC-MS of plasma; assay type: in vivo; conditions: rat
Experimental: The bioavailability of some compounds synthesized (Examples 1a, 2, 2a, 3, 3a, 10, 15a, 16a and 24) was studied in rats after oral administration of a single dose (48.5 μmol/kg) and compared with the reference (R)- or (RS)-α-LA.
Each treatment was carried out on groups of 6 male rats (Sprague-Dawley SD rat) per compound. At regular times, blood withdrawals were carried out for the measurement by HPLC-MS of the concentration of plasmatic α-LA (FIGS. 5, 7, 9) and of the residual compound administered (FIGS. 6, 8).

HepG2 cells [2] = experiment: Variation in NADH levels (total NADH/NAD ratio), spectrophotometric kit; assay type: cell-based, human; conditions: 5 μM, 72 hours
Text: (§1) Although it is known that under hyperglycemic conditions α-LA induces AMPK activation in hepatic cells, the molecular mechanisms responsible for this biochemical process are not yet known. As envisaged in the description, the inventors of the present invention have advanced the hypothesis that AMPK activation by α-LA is the result of changes in the amount of NADH and NADHP present in cells, due to the interference of α-LA and/or its analogous derivatives in the oxidation-reduction processes. To verify this hypothesis, use was made of commercial kits (by Valter Occhiena) able to analyze the variations in the cellular amounts of NAD(P)H relative to total NAD(P), in the presence of increasing concentrations of the compounds under analysis (total NAD=NADH+NAD^+; total NADP=NADPH+NADP^+).

HepG2 cells [3] = experiment: Variation in NADPH levels (total NADPH/NADP ratio), spectrophotometric kit; assay type: cell-based, human; conditions: HepG2 cells, 5, 10, 100 and 500 μM, 72 hours
Text: as §1

[4] = system: protein pool extracted from murine liver; experiment: In vitro enzyme hydrolysis assay, thin-layer chromatography detection; assay type: in vitro ADME, mouse; conditions: 1 mg murine liver protein extract, 50 μg compound, 25° C.
Experimental: In view of what found from the results of Example 29, an in vitro enzyme hydrolysis assay was carried out with the aim of further clarifying which of the synthesized derivatives behaved as alpha-lipoic acid precursors, i.e. as prodrugs able to release alpha-lipoic acid by hydrolysis.
A protein pool extracted from murine liver, containing enzymes able to promote hydrolysis of the compounds of the invention, was used to reintroduce in vitro the hydrolytic activity previously described in the pharmacokinetic studies.
Methodology • The liver of a wild-type mouse was removed; excess blood was removed by washing in phosphate buffer saline (PBS); • Said liver was transferred into a homogenizer with a sufficient amount of lysis buffer (50 mM Tris HCl pH 7.5-8.0; 150 mM NaCl; 5 mM EGTA pH 7.5-8.0; 50 mM NaF pH 8.0; 10% (v/v) glycerol; 1.5 mM MgCl2, 1% Triton X-100) enriched with protease and phosphatase inhibitors (Protease Inhibitor Cocktail; Sigma-Aldrich). 15-20 impacts were applied by the pestle in order to obtain a homogeneous solution; • The entire mixture was left under agitation at +4° C. for 1 hour; after centrifugation at 14000 rpm, the supernatant containing the extracted proteins was recovered; • The amount of extracted protein was determined using the Bradford assay; • The enzymatic hydrolysis reaction was carried out: 1 mg of protein extract for hydrolysing 50 μg of synthesized compound (dissolved in DMSO); 1, 3 or 24 hours at 25° C. under agitation; • The digestion product(s) was/were detected using thin-layer chromatography: mobile phase (60:40:1 of ethyl acetate; n-hexane; acetic acid); silica plate (Sigma-Aldrich); phosphomolybdic reagent; • The digestion products were analyzed and compared with (R)-α-LA (Sigma-Aldrich), and with the non-hydrolysed compound of the invention.
It was, therefore, possible to detect (R)-alpha-lipoic acid as the hydrolysis product and to differentiate it from the enantiomers of the invention.

Structure (SMILES)	enzymatic hydrolysis after 24 h (FIG. 3) [4]	amount of (R)-alpha-lipoic acid released after 24 h (FIG. 3) [4]	other results
O=C(CCCCC1CCSS1)NCCCN1CCOCC1 (racemic) [Example 3a, 5-[1,2]dithiolan-3-yl-pentanoic acid(3-morpholin-4-yl-propyl)-amide]			released alpha-lipoic acid and compound itself in plasma, any withdrawal time ([1]; single dose 48.5 μmol/kg): neither released alpha-lipoic acid nor the compound itself was detected; NADH levels relative to control at 5 μM (FIG. 10) (HepG2 cells [2]): lower NADH levels than the control; effect on NADPH levels (FIG. 11) (HepG2 cells [3]): influenced NADPH levels, in a dose dependent manner
CC(=O)NCCNC(=O)CCCCC1CCSS1 (racemic) [Example 10a, 5-[1,2]dithiolan-3-yl-pentanoic acid(2-acetylamino-ethyl)-amide]			melting point: 144.6 to 145.8 °C
O=C(CCCC[C@@H]1CCSS1)N1CCOCC1 [Example 1, (R)-1-morpholin-4-yl-5-[1,2]dithiolan-3-yl-pentan-1-one]	remained essentially unaltered		
CCCCNC(=O)CCCC[C@@H]1CCSS1 [Example 2, (R)-5-[1,2]dithiolan-3-yl-pentanoic acid butylamide]	not completely hydrolysed	very considerable amount	concentration of alpha-lipoic acid in plasma after 30 minutes from administration (FIG. 9) ([1]; shorter treatment intervals (5-30 minutes)): significant concentration; hydrolysis profile in vivo compared with the corresponding racemic compound (FIG. 7 vs FIG. 5) ([1]; single dose 48.5 μmol/kg): more linear hydrolysis profile
O=C(CCCC[C@@H]1CCSS1)NCCCN1CCOCC1 [Example 3, (R)-5-[1,2]dithiolan-3-yl-pentanoic acid(3-morpholin-4-yl-propyl)-amide]			released alpha-lipoic acid and compound itself in plasma, any withdrawal time ([1]; single dose 48.5 μmol/kg): neither released alpha-lipoic acid nor the compound itself was detected
CCCC(C)NC(=O)CCCC[C@@H]1CCSS1 (stereo partly drawn) [Example 5, (R)-5-[1,2]dithiolan-3-yl-pentanoic acid(1-methyl-butyl)-amide]	remained essentially unaltered		
CNC(=O)CCCC[C@@H]1CCSS1 [Example 6, (R)-5-[1,2]dithiolan-3-yl-pentanoic acid methylamide]	partial hydrolization	reduced release	
CCCNC(=O)CCCC[C@@H]1CCSS1 [Example 7, (R)-5-[1,2]dithiolan-3-yl-pentanoic acid propylamide]	partial hydrolization	reduced release	
CC(C)NC(=O)CCCC[C@@H]1CCSS1 [Example 8, (R)-5-[1,2]dithiolan-3-yl-pentanoic acid isopropylamide]	partial hydrolization	reduced release	effect on NADPH levels (FIG. 11) (HepG2 cells [3]): influenced NADPH levels, in a dose dependent manner
CC(=O)NCCNC(=O)CCCC[C@@H]1CCSS1 [Example 10, (R)-5-[1,2]dithiolan-3-yl-pentanoic acid(2-acetylamino-ethyl)-amide]			melting point: 144.6 to 145.8 °C
O=C(CCCC[C@@H]1CCSS1)NCCc1ccccc1 [Example 11, (R)-5-[1,2]dithiolan-3-yl-pentanoic acid phenethyl-amide]	partial hydrolization	reduced release	
O=C(CCCC[C@@H]1CCSS1)NCCCc1ccccc1 [Example 12, (R)-5-[1,2]dithiolan-3-yl-pentanoic acid(3-phenyl-propyl)-amide]	partial hydrolization	reduced release	
O=C(CCCC[C@@H]1CCSS1)NCCCCc1ccccc1 [Example 13, (R)-5-[1,2]dithiolan-3-yl-pentanoic acid(4-phenyl-butyl)-amide]	partial hydrolization	reduced release	
O=C(CCCC[C@@H]1CCSS1)NC1CCCC1 [Example 14, (R)-5-[1,2]dithiolan-3-yl-pentanoic acid cyclopentylamide]	partial hydrolization	reduced release	
CC(C)(C)C(=O)OCOC(=O)CCCC[C@@H]1CCSS1 [Example 15, (R)-5-[1,2]dithiolan-3-yl-pentanoic acid 2,2-dimethyl-propionyloxymethyl ester]			enzymatic hydrolysis after 1 h (FIG. 2) [4]: completely hydrolyzed
CCCC(=O)OCOC(=O)CCCC[C@@H]1CCSS1 [Example 16, (R)-5-[1,2]dithiolan-3-yl-pentanoic acid butyryloxymethyl ester]			enzymatic hydrolysis after 1 h (FIG. 2) [4]: completely hydrolyzed
CC(=O)OC(C)OC(=O)CCCC[C@@H]1CCSS1 (stereo partly drawn) [Example 17, (R)-5-[1,2]dithiolan-3-yl-pentanoic acid 1-acetoxy-ethyl ester]			enzymatic hydrolysis after 1 h (FIG. 2) [4]: partial hydrolization; enzymatic hydrolysis after 3 h (FIG. 2) [4]: completely hydrolyzed
CC(OC(=O)CCCC[C@@H]1CCSS1)OC(=O)C(C)(C)C (stereo partly drawn) [Example 18, (R)-5-[1,2]dithiolan-3-yl-pentanoic acid 2,2-dimethyl-propionyloxyethyl ester]			enzymatic hydrolysis after 1 h (FIG. 2) [4]: partial hydrolization; enzymatic hydrolysis after 3 h (FIG. 2) [4]: completely hydrolyzed
CCCCCNC(=O)CCCC[C@@H]1CCSS1 [Example 19, (R)-5-[1,2]dithiolan-3-yl-pentanoic acid n-pentylamide]	partial hydrolization	reduced release	
CCCCCCCNC(=O)CCCC[C@@H]1CCSS1 [Example 20, (R)-5-[1,2]dithiolan-3-yl-pentanoic acid n-heptylamide]	remained essentially unaltered		
CCC(CC)NC(=O)CCCC[C@@H]1CCSS1 [Example 21, (R)-5-[1,2]dithiolan-3-yl-pentanoic acid pentan-3-ylamide]	remained essentially unaltered		
O=C(CCCC[C@@H]1CCSS1)NCc1ccccc1 [Example 22, (R)-5-[1,2]dithiolan-3-yl-pentanoic acid N-benzylamide]	not completely hydrolysed	very considerable amount	
COc1ccc(CNC(=O)CCCC[C@@H]2CCSS2)cc1O [Example 23, (R)-5-[1,2]dithiolan-3-yl-pentanoic acid N-(3-hydroxy-4methoxybenzyl)amide]	not completely hydrolysed	very considerable amount	
O=C(CCCC[C@@H]1CCSS1)NCC1CC1 [Example 24, (R)-5-[1,2]dithiolan-3-yl-pentanoic acid N-(cyclopropylmethyl)amide]	not completely hydrolysed	very considerable amount	
C=CCCNC(=O)CCCC[C@@H]1CCSS1 [Example 25, (R)-5-[1,2]dithiolan-3-yl-pentanoic acid N-(buten-3-yl)amide]	not completely hydrolysed	very considerable amount	
COc1ccc(CNC(=O)CCCC[C@@H]2CCSS2)cc1OC(C)=O [Example 27, (R)-5-[1,2]dithiolan-3-yl-pentanoic acid N-(3-acetoxy-4methoxybenzyl)amide]	not completely hydrolysed	very considerable amount	
CC1CCN(C(=O)CCCC[C@@H]2CCSS2)CC1 [Example 28, (R)-5-[1,2]dithiolan-3-yl-pentanoic acid 1-(4-methylpiperidin-1-yl)amide]	remained essentially unaltered		
